Test results as given in ChEMBL document CHEMBL1201862, “PubChem BioAssay data set” (2004).
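Interpolation was linear, between the two tested concentrations surrounding the appropriate level; five concentrations were tested over 48 hours in 96-well plates. Here, GI50 denotes the concentration required for 50% inhibition of growth.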 The source made the active and inactive calls. Cut-off read from the data, not from the text of the source: active = GI50 up to about 1.1 µM and inactive = higher.

Tests used:
Experiment in all cases: NCI tumour cell line growth inhibition, 48 h
[1] = test system: 786-0
[2] = test system: A549
[3] = test system: ACHN
[4] = test system: BT-549
[5] = test system: CAKI-1
[6] = test system: CCRF-CEM
[7] = test system: COLO 205
[8] = test system: DU-145
[9] = test system: EKVX
[10] = test system: HCT-116
[11] = test system: HCT-15
[12] = test system: HL-60
[13] = test system: HOP-92
[14] = test system: HT-29
[15] = test system: Hs-578T
[16] = test system: IGROV-1
[17] = test system: K562
[18] = test system: KM12
[19] = test system: M14
[20] = test system: MCF7
[21] = test system: MDA-MB-231
[22] = test system: MDA-MB-435
[23] = test system: MDA-N
[24] = test system: MOLT-4
[25] = test system: Malme-3M
[26] = test system: NCI-H226
[27] = test system: NCI-H23
[28] = test system: NCI-H460
[29] = test system: NCI-H522
[30] = test system: NCI/ADR-RES
[31] = test system: OVCAR-5
[32] = test system: OVCAR-8
[33] = test system: PC-3
[34] = test system: RPMI-8226
[35] = test system: RXF 393
[36] = test system: SF-268
[37] = test system: SF-295
[38] = test system: SF-539
[39] = test system: SK-MEL-2
[40] = test system: SK-MEL-5
[41] = test system: SK-OV-3
[42] = test system: SN12C
[43] = test system: SNB-19
[44] = test system: SR
[45] = test system: SW-620
[46] = test system: T47D
[47] = test system: TK-10
[48] = test system: U-251
[49] = test system: UACC-257
[50] = test system: UACC-62
[51] = test system: UO-31

CC(=O)Nc1ccc2c(C(=O)O)c(C)c(O)nc2n1 was tested, and the GI50 [1] was > 100 µM (inactive), the GI50 [2] was > 100 µM (inactive) and the GI50 [3] was > 100 µM (inactive). For the same molecule, the GI50 [4] was > 100 µM (inactive), the GI50 [5] was > 100 µM (inactive) and the GI50 [6] was > 10 µM (inactive). The GI50 [7] was > 100 µM (inactive), the GI50 [8] was > 100 µM (inactive) and the GI50 [9] was > 100 µM (inactive). The GI50 [10] was 71.3 µM (inactive), the GI50 [11] was over 100 µM and the GI50 [12] was > 100 µM (inactive). For the same molecule, the GI50 [13] was 5.27 µM (inactive), the GI50 [14] was > 100 µM (inactive) and the GI50 [15] was > 100 µM (inactive). For the same molecule, the GI50 [16] was > 100 µM (inactive), the GI50 [17] was 59.8 µM (inactive) and the GI50 [18] was > 100 µM (inactive). For the same molecule, the GI50 [19] was > 100 µM (inactive), the GI50 [20] was > 100 µM (inactive) and the GI50 [21] was > 100 µM (inactive). The GI50 [22] was > 100 µM (inactive), the GI50 [23] was > 100 µM (inactive) and the GI50 [24] was 51.3 µM (inactive). For the same molecule, the GI50 [25] was 95.7 µM (inactive), the GI50 [26] was 33.7 µM (inactive) and the GI50 [27] was > 100 µM (inactive). For the same molecule, the GI50 [28] was > 100 µM (inactive), the GI50 [29] was 32.5 µM (inactive) and the GI50 [30] was > 100 µM (inactive). The GI50 [31] was > 100 µM (inactive), the GI50 [32] was 83.4 µM (inactive) and the GI50 [33] was > 100 µM (inactive). The GI50 [34] was > 100 µM (inactive), the GI50 [35] was > 100 µM (inactive) and the GI50 [36] was 57.7 µM (inactive). The GI50 [37] was > 100 µM (inactive), the GI50 [38] was > 100 µM (inactive) and the GI50 [39] was > 100 µM (inactive). The GI50 [40] was > 100 µM (inactive), the GI50 [41] was > 100 µM (inactive) and the GI50 [42] was > 100 µM (inactive). For the same molecule, the GI50 [43] was 25.5 µM (inactive), the GI50 [44] was > 10 µM (inactive) and the GI50 [45] was > 100 µM (inactive). The GI50 [46] was 89.7 µM (inactive), the GI50 [47] was > 100 µM (inactive) and the GI50 [48] was 46.9 µM (inactive). For the same molecule, the GI50 [49] was > 100 µM (inactive), the GI50 [50] was > 100 µM (inactive) and the GI50 [51] was > 100 µM (inactive).
